The first test has as its target T1, cloned human dopamine D3 receptors (Homo sapiens, UniProt P35462).
T1 construct: expressed in transfected cells; membrane homogenate
The experiment in a line: [N-Methyl-3H]Spiroperidol binding to cloned human dopamine D3 receptors (Protocol 1). The conditions noted are these: D3 Ki (nM), the 25th table. The method in brief: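 Radioligand displacement with [N-methyl-3H]spiroperidol used a physiological-salt Tris buffer (0.05 M, pH 7.7; NaCl 120 mM, KCl 5 mM, CaCl2 2 mM, MgCl2 1 mM) and membranes of a high-expressing stable CHO clone carrying human D3. Total ligand concentration came from measured added CPM; 0.1% ascorbic acid was optional for oxidizable compounds.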
T1 sequence (P35462 whole entry): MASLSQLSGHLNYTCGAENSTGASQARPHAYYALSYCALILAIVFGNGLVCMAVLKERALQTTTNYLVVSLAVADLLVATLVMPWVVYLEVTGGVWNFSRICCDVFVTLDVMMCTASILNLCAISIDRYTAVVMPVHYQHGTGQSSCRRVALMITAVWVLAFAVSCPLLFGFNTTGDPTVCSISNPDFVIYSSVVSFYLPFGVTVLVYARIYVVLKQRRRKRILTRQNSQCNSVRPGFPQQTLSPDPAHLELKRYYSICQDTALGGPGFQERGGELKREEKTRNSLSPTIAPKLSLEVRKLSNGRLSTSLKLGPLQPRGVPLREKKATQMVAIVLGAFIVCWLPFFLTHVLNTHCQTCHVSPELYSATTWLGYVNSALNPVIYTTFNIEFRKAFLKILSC
As for `COc1ccc(OC(=O)NCC2CC2CN2CCC(c3noc4ccsc34)CC2)cc1` (centres unmarked) [compound 831671], the Ki was 96.4 nM.

Still in this test, the particulars now being: Table 2; read-out: D3K1.
As for `Cc1c(C(=O)NCCC(CO)CN2CCN(c3csc4cc(C(F)(F)F)ccc34)CC2)cnn1-c1ccccc1` (centres unmarked) [818634ES], the Ki was found to be 305 nM.

Take `COc1ccc2cc(C(=O)NCCCCN3CCCN(c4csc5cc(F)ccc45)CC3)oc2c1` [compound 827122]: the Ki came out at 6.06 nM.

Turning to `CC1=C(C(=O)NCC(CO)CCN2CCN(c3csc4cc(C(F)(F)F)ccc34)CC2)Cc2ccccc21` (centres unmarked) [818934ES], the Ki was 218 nM.

Turning to `CCn1cc(C(=O)NC(CO)CCCN2CCN(c3csc4cc(C(F)(F)F)ccc34)CC2)c(=O)c2ccc(C)nc21` (centres unmarked) [compound 815704], the Ki is 137 nM.

As for `COc1cccc2oc(C(=O)NCCCCN3CCCN(c4csc5cc(F)ccc45)CC3)cc12` [compound 827128], the Ki turned out to be 19.1 nM.

Regarding `CC(=O)C1CC(CC(=O)NC/C=C/CN2CCN(c3csc4cc(C(F)(F)F)ccc34)CC2)C1(C)C` (centres unmarked) [compound 827741], the Ki was 246 nM.

For the compound `O=C(NC/C=C/CN1CCN(c2csc3cc(C(F)(F)F)ccc23)CC1)C1(c2ccccc2)CC1` [compound 827740], the Ki was 397 nM.

The same test, now with this note: read-out: D3K1.
Turning to `O=C(NCCCCCCN1CCN(c2csc3cc(C(F)(F)F)ccc23)CC1)c1n[nH]c2ccccc12` [compound 826743], the Ki was found to be 15 nM.

Regarding `O=C(NCCCCN1CCN(c2c(Cl)sc3cc(C(F)(F)F)ccc23)CC1)c1ccccc1C(F)(F)F` [compound 815573], the Ki is 35 nM.

As for `CCn1cc(C(=O)NC(CO)CCCN2CCN(c3csc4cc(C(F)(F)F)ccc34)CC2)c(=O)c2ccc(C)nc21` (centres unmarked) [compound 815704], the Ki worked out at 137 nM.

As to `O=C(NCCCCN1CCN(c2c(Cl)sc3cc(C(F)(F)F)ccc23)CC1)c1ccc(C(F)(F)F)cc1` [compound 815575], the Ki stood at 50 nM.

For `N#Cc1cccc(C(=O)NC/C=C\CN2CCN(c3csc4cc(C(F)(F)F)ccc34)CC2)c1` [compound 826343], the Ki came out at 53 nM.

Take `Cc1ccccc1C(=O)NCCCCCN1CCN(c2csc3cc(C(F)(F)F)ccc23)CC1` [compound 826771]: the Ki worked out at 6.7 nM.

For the compound `COc1cc(OC)cc(C(=O)NCCCCN2CCN(c3csc4cc(C(F)(F)F)ccc34)CC2)c1` [compound 815543], the Ki turned out to be 32 nM.

Regarding `O=C(NC/C=C/CN1CCN(c2csc3cc(C(F)(F)F)ccc23)CC1)C1CCCCC1` [compound 827717], the Ki was determined as 9.5 nM.

Regarding `O=C(NCCCCN1CCN(c2c(Cl)sc3cc(F)ccc23)CC1)C(F)(F)F` [compound 814854], the Ki was determined as 35 nM.

For the compound `CCCCCOc1ccc(C(=O)NCCCCN2CCN(c3csc4cc(C(F)(F)F)ccc34)CC2)cc1` [compound 815552], the Ki is 140 nM.

In the case of `O=C(NCCCCN1CCN(c2c(Cl)sc3cc(F)ccc23)CC1)c1ccc([N+](=O)[O-])cc1` [compound 815061], the Ki was determined as 3.6 nM.

As for `COc1ccccc1C(=O)NCCCCN1CCN(c2c(Cl)sc3cc(C(F)(F)F)ccc23)CC1` [compound 815574], the Ki was found to be 53 nM.

Take `O=C(NCCCCN1CCN(c2c(Cl)sc3cc(C(F)(F)F)ccc23)CC1)c1ccc(F)cc1F` [compound 815561]: the Ki is 41 nM.

In the case of `O=C(NC/C=C\CN1CCN(c2csc3cc(C(F)(F)F)ccc23)CC1)c1ccsc1` [compound 826332], the Ki came out at 20 nM.

As to `COc1cccc(C(=O)NC/C=C\CN2CCN(c3csc4cc(C(F)(F)F)ccc34)CC2)c1` [compound 826344], the Ki was 29 nM.

Still in this test, the particulars now being: the 13th table, unit inferred; read-out: D3Ki.
Turning to `O=C(NCCCCN1CCCN(c2csc3cc(F)ccc23)CC1)c1cc2ccccc2s1` [compound 822158], the Ki came out at 1.1 nM.

With `O=C(NCCCCCN1CCCN(c2csc3cc(F)ccc23)CC1)c1ccc(-c2ccccn2)s1` [S984501], the Ki is 15.8 nM.

In the case of `O=C(NCCCCN1CCCN(c2csc3cc(C(F)(F)F)ccc23)CC1)c1cc2ccccc2o1` [S984513], the Ki is 19 nM.

`COc1cccc(CC(=O)NCCCCN2CCCN(c3csc4cc(F)ccc34)CC2)c1` [S982510]: the Ki turned out to be 5.9 nM.

With `O=C(NCCCCN1CCCN(c2csc3cc(F)ccc23)CC1)c1cnc2ccccc2n1` [compound 822200], the Ki came out at 10.6 nM.

On to `O=C(NCCCCCN1CCC(c2noc3ccsc23)CC1)c1ccc(-c2ccccc2)cc1` [compound 816208], for which the Ki was determined as 84.9 nM.

In the case of `O=C(NCCCCN1CCCN(c2csc3cc(F)ccc23)CC1)c1c[nH]c2ccccc12` [S977822], the Ki is 4.12 nM.

With `O=C(NCCCCCN1CCCN(c2csc3cc(F)ccc23)CC1)c1cc2ccccc2[nH]1` [S984504], the Ki stood at 17.1 nM.

On to `Cc1ccccc1C(=O)NCCCCN1CCCN(c2csc3cc(C(F)(F)F)ccc23)CC1` [S980639], for which the Ki was found to be 40 nM.

Turning to `Cc1nnsc1C(=O)NCCCCN1CCCN(c2csc3cc(F)ccc23)CC1` [S981837], the Ki stood at 1.3 nM.

In the case of `Cc1ccc(Sc2ncccc2C(=O)NCCCCN2CCCN(c3csc4cc(F)ccc34)CC2)cc1` [S981835], the Ki turned out to be 1.2 nM.

The same test, now with this note: the 14th table; read-out: D3 Ki.
Take `O=C(NCCCCCCN1CCN(c2csc3cc(C(F)(F)F)ccc23)CC1)c1n[nH]c2ccccc12` [compound 826743]: the Ki was determined as 15 nM.

On to `CCn1cc(C(=O)NC(CO)CCCN2CCN(c3csc4cc(C(F)(F)F)ccc34)CC2)c(=O)c2ccc(C)nc21` (centres unmarked) [compound 815704], for which the Ki came out at 137 nM.

Turning to `Cc1ccccc1C(=O)NCCCCCN1CCN(c2csc3cc(C(F)(F)F)ccc23)CC1` [compound 826771], the Ki was found to be 6.7 nM.

For the compound `O=C(NCCCCCN1CCN(c2csc3cc(F)ccc23)CC1)c1ccc2ccccc2c1` [compound 826779], the Ki amounted to 0.984 nM.

Staying with this test, now noted: the 15th table; read-out: D3 Ki.
`O=C(NCCCCN1C2CCC1CC(c1noc3cc(F)ccc13)C2)c1cccc2ccccc12` (centres unmarked) [compound 816330]: the Ki stood at 186 nM.

Turning to `CCCCCCc1ccc(C(=O)NCCCCN2C3CCC2CC(c2noc4ccccc24)C3)cc1` (centres unmarked) [compound 816527], the Ki is 64.8 nM.

Regarding `O=C(NCCCCN1C2CCC1CC(c1noc3cc(F)ccc13)C2)c1ccccc1C(F)(F)F` (centres unmarked) [compound 816340], the Ki amounted to 427 nM.

As for `O=C(NCCCCN1C2CCC1CC(c1noc3ccccc13)C2)c1ccc(C(F)(F)F)cc1` (centres unmarked) [compound 816530], the Ki was found to be 110 nM.

As to `O=C(Cc1ccccc1)NCCCCN1C2CCC1CC(c1noc3cc(F)ccc13)C2` (centres unmarked) [compound 816327], the Ki was 392 nM.

For `Cc1ccccc1C(=O)NCCCCN1C2CCC1CC(c1noc3ccccc13)C2` (centres unmarked) [compound 816531], the Ki is 299 nM.

In the case of `O=C(NCCCCN1C2CCC1CC(c1noc3cc(F)ccc13)C2)c1cc2ccccc2s1` (centres unmarked) [compound 816334], the Ki came to 64.6 nM.

The same test, now with this note: the 16th table; read-out: D3 Ki.
Take `COc1ccc2cc(C(=O)NCCCCN3CCCN(c4csc5cc(F)ccc45)CC3)oc2c1` [compound 827122]: the Ki was 6.06 nM.

Regarding `COc1cccc2oc(C(=O)NCCCCN3CCCN(c4csc5cc(F)ccc45)CC3)cc12` [compound 827128], the Ki came to 19.1 nM.

The test is the same for the next values; noted with them: the 17th table; read-out: D3 Ki.
In the case of `O=C(c1ccc(-c2ccccc2)cc1)N(Cc1ccccc1)CC1CC1CN1CCCN(c2csc3cc(F)ccc23)CC1` (racemic) [compound 830397], the Ki was found to be 55.4 nM.

Still in this test, the particulars now being: the 18th table; read-out: D3 Ki.
Take `O=C(NCc1sccc1CN1CCN(c2csc3cc(F)ccc23)CC1)c1c[nH]c2ccccc12` [compound 826325]: the Ki was 54 nM.

`Cc1ccccc1C(=O)NCc1sccc1CN1CCN(c2csc3cc(F)ccc23)CC1` [compound 826306]: the Ki was 89 nM.

For the compound `O=C(NCc1sccc1CN1CCN(c2csc3cc(F)ccc23)CC1)c1ccc(-c2ccccc2)cc1` [compound 826308], the Ki worked out at 206 nM.

The same test, now with this note: the 19th table; read-out: D3 Ki.
As for `O=C(Nc1cccc(CN2CCN(c3csc4cc(F)ccc34)CC2)c1)c1ccsc1` [compound 825654], the Ki worked out at 245 nM.

As to `Cc1ccccc1C(=O)Nc1cccc(CN2CCN(c3csc4cc(F)ccc34)CC2)c1` [compound 822183], the Ki worked out at 154 nM.

The test is the same for the next values; noted with them: the 20th table; read-out: D3 Ki.
Regarding `COc1cc(OC)cc(C(=O)NCc2ccoc2CN2CCN(c3csc4cc(F)ccc34)CC2)c1` [compound 825837], the Ki was 190 nM.

The same test, now with this note: the 21st table; read-out: D3 Ki.
As for `C[C@@H]1CN(c2csc3cc(F)ccc23)C[C@H](C)N1CCCCNC(=O)c1ccc(C(F)(F)F)cc1` [compound 826946], the Ki was 35.9 nM.

Turning to `C[C@@H]1CN(c2csc3cc(C(F)(F)F)ccc23)C[C@H](C)N1CCCCNC(=O)c1cccc2ccccc12` [compound 827041], the Ki came out at 357 nM.

Consider `C[C@@H]1CN(c2csc3cc(F)ccc23)C[C@H](C)N1CCCCNC(=O)c1ccncc1` [compound 826947], for which the Ki came out at 47.6 nM.

On to `C[C@@H]1CN(c2csc3cc(F)ccc23)C[C@H](C)N1CCCCNC(=O)c1ccc(F)cc1` [compound 826939], for which the Ki was determined as 19 nM.

`C[C@@H]1CN(c2csc3cc(F)ccc23)C[C@H](C)N1CCCCNC(=O)c1cccnc1Cl` [compound 826948]: the Ki amounted to 154 nM.

Still in this test, the particulars now being: the 22nd table; read-out: D3 Ki.
For the compound `O=C(NCCCCN1CCN(c2noc3ccsc23)CC1)c1ccc(C(F)(F)F)cc1` [compound 829677], the Ki came to 96.6 nM.

Take `Cc1csc2c(N3CCN(CCCCNC(=O)CCCc4ccccc4)CC3)noc12` [compound 830748]: the Ki is 63.8 nM.

Staying with this test, now noted: the 23rd table; read-out: D3 Ki.
Turning to `CC[C@H]1CC[C@H](NC[C@@H]2C[C@H]2CN2CCN(c3ccccc3C)CC2)CC1` [compound 831876], the Ki came to 12 nM.

As for `FC(F)(F)Oc1cccc(CNC[C@@H]2C[C@H]2CN2CCN(c3csc4cc(C(F)(F)F)ccc34)CC2)c1` [compound 833067], the Ki came to 54.9 nM.

For the compound `Cc1nc(Cl)c(Cl)n1CCCNC[C@@H]1C[C@H]1CN1CCN(c2csc3cc(C(F)(F)F)ccc23)CC1` [compound 832817], the Ki amounted to 36.5 nM.

In the case of `FC(F)(F)c1ccc2c(N3CCN(C[C@@H]4C[C@H]4CNCCc4ccccc4)CC3)csc2c1` [compound 832322], the Ki was 227 nM.

The same test, now with this note: the 24th table; read-out: D3 Ki.
Take `O=S(=O)(NC[C@@H]1C[C@H]1CN1CCN(c2csc3cc(C(F)(F)F)ccc23)CC1)c1ccc(F)cc1` (racemic) [compound 831495, 4-Fluoro-N-{2R-[4-(6-trifluoromethyl-benzo[b]thiophen-3-yl)-piperazin-1-ylmenthyl]-1R-cyclopropylmethyl}-benzenesulfonamide]: the Ki is 35.1 nM.

Staying with this test, now noted: the 26th table; read-out: D3 Ki.
`OC(CCN1CCC(c2noc3ccsc23)CC1)CN1CCc2ccccc2C1` (centres unmarked) [compound 831941]: the Ki was 161 nM.

As for `OC(CCN1CCC(c2noc3ccsc23)CC1)CN1CCOCC1` (centres unmarked) [compound 831940], the Ki was determined as 356 nM.

The record behind these values is US7550469B2, “Heterocyclic amide derivatives and their use as dopamine D3 receptor ligands” (Aventis Pharmaceuticals Inc., priority 2001, dated 2009).
